Measurements as given in paper PMC12146708 (Proceedings of the National Academy of Sciences of the …, 2025).

Target: human Nav1.8 (Homo sapiens, UniProt Q9Y5Y9)
Assay: whole-cell manual patch clamp dose-response, […] °C
Assay type: cell-based

Sequence of human Nav1.8 (Q9Y5Y9 whole entry): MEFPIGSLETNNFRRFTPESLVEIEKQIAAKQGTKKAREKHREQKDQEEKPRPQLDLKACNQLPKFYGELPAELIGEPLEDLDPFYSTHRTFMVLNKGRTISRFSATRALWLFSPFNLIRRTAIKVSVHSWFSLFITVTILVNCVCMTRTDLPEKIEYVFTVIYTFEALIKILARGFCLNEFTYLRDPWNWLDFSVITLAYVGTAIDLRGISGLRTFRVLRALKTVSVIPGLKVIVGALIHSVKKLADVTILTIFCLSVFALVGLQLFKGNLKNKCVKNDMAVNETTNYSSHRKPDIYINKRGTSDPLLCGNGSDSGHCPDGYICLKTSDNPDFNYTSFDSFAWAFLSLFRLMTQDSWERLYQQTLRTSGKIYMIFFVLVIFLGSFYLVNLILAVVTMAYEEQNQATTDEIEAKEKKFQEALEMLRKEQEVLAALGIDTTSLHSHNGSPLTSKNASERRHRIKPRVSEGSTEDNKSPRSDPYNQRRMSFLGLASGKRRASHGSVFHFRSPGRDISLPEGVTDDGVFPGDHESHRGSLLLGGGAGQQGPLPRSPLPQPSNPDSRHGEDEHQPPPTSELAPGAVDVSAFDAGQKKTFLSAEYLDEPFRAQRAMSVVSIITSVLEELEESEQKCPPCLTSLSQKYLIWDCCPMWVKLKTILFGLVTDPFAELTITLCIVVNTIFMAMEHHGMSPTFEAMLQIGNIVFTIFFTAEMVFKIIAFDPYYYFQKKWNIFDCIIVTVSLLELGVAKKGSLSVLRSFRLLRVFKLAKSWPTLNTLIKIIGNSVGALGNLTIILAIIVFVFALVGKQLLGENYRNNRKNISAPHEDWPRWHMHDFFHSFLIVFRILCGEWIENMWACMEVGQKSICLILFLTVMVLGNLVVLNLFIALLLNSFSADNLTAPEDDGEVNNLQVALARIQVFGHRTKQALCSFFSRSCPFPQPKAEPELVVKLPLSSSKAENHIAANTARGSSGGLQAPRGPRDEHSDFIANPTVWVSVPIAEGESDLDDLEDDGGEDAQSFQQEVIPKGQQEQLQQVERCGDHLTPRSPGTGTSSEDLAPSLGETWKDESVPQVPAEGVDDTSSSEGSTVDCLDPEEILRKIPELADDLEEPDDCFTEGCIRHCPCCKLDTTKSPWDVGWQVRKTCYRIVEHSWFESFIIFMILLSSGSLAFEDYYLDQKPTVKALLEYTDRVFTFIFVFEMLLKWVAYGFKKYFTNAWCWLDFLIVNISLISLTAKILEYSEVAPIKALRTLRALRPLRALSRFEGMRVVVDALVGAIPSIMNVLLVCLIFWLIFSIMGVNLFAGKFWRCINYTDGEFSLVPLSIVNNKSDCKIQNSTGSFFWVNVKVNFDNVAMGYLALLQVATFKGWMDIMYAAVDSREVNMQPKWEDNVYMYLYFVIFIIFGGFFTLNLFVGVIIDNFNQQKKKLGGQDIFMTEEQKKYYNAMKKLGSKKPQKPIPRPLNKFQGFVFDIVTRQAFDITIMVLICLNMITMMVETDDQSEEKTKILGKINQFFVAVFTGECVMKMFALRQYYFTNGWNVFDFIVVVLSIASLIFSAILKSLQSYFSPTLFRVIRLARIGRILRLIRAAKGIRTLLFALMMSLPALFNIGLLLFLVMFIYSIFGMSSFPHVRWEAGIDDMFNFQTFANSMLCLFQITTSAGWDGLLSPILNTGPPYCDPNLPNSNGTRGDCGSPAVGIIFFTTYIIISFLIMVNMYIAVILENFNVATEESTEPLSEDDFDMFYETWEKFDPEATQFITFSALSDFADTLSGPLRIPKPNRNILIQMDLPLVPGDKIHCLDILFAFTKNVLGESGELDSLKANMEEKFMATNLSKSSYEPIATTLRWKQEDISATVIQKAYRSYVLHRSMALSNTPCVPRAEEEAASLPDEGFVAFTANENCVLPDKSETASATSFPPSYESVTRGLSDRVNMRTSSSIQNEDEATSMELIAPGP
Sequence of human Nav1.8 (Q9NY72 23-215 partner): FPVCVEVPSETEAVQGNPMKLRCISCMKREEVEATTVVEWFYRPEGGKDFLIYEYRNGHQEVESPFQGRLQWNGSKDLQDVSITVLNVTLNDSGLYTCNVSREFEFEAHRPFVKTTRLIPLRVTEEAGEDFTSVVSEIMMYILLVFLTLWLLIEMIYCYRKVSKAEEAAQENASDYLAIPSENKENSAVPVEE

Kd: 0.072 nM
SMILES: COc1c([C@H]2[C@H](C(=O)Nc3ccnc(C(N)=O)c3)O[C@@](C)(C(F)(F)F)[C@H]2C)ccc(F)c1F [VX-548]
